Source: PubChem BioAssay AID1963832 (Molecular Pharmacology Branch, DTP, NCI, 2024)
pIC50: −log10 of the molar value.

Tested on: 885724-159-R-J1-PDC complex spheroid viability
Assay: Anticancer human tumor 885724-159-R-J1-PDC patient-derived pancreatic adenocarcinoma cell line growth inhibition [POLQ]
Details: for pIC50: curve of first compound; for viability, T/C: stronger effect = lower value
Experimental: Multicellular complex tumor spheroid response to Polymerase (POL) inhibitors (novobiocin, ART-558, RP6685) in combination with a variety of drugs and investigational agents in selected tumor cell lines
The POL inhibitors (novobiocin, ART-558, and RP6685) were evaluated both individually and in combination with standard of care and investigational anticancer small molecules within a complex spheroid model of solid tumors. . Complex spheroids include a stromal component modeled by human endothelial cells (HUVEC) and fibroblasts modeled by human mesenchymal stem cells (MSCs). The concentration ranges selected for each drug and investigational agent were based upon clinically achievable concentrations if the clinical Cmax of the agent was known.
Compounds. The drugs and investigational agents: novobiocin (NSC847541), ART-558 (NSC835418), RP-6685 (NSC848927), peposertib (NSC802822), ceralasertib (NSC780249), elimusertib (NSC800525), camonsertib (NSC841442), AZD-1390 (NSC803789), olaparib (NSC753686), talazoparib (NSC767125), rucaparib (NSC756644), sotorasib (NSC818433), MRTX-1133 (NSC836407), SN-38 (NSC673596), topotecan (NSC609699), epotoside (NSC141540), doxorubicin (NSC123127), gemcitabine (NSC613327), 5-fluorouracil (NSC19893), paclitaxel (NSC125973), vemurafenib (NSC761431), MSA-2 (NSC828583), SN-011 (NSC837082), adavosertib (NSC754352), prexasertib (NSC758257), carboplatin (NSC241240) and oxaliplatin (NSC266046), were obtained from the National Cancer Institute (NCI) Developmental Therapeutics Program Chemical Repository (21). The FDA-approved anticancer drug set is available from the Developmental Therapeutics Program at https://dtp.cancer.gov/organization/dscb/obtaining/. […] The stock solutions were prepared in dimethyl sulfoxide (DMSO, Sigma-Aldrich, St. Louis, MO, cat. D2650), except for the platinum compounds which were prepared in saline (Quality Biological, Gaithersburg, MD, cat. 114-055-101), at 800-fold the tested concentration and stored at -70 degrees C prior to their use. All drugs and investigational agents were tested over a range starting from a high concentration at or near the clinical Cmax and decreasing in half-log increments. If the clinical Cmax for an agent had not been determined, the highest concentration tested was 10 microM, except for SN-38, which was tested at a high concentration of 1 microM.
Cell Culture. All cells were maintained in an incubator at 37 degrees C and 5% CO2 with 95% humidity. The PDC lines were cultured according to standard operating procedures established by the NCI PDMR (https://pdmr.cancer.gov). Table 3 of the manuscript, lists the cell lines along with the number of the three cell types plated to form the mct-spheroids and media for tumor cell growth. After thawing, all PDC lines, except 997537-175-T-J1-PDC and 415267-285-R-J2-PDC, were cultured in Matrigel-coated flasks prepared with a working solution of 1X Ham's F-12 nutrient mix, without supplementation (Thermo Fisher Scientific, cat. 11765054), 100 U/mL penicillin-streptomycin (Thermo Fisher Scientific, cat. 15140122), and 2.5% Matrigel (Corning Inc., Corning, NY, cat. 354248) for the first three passages. The two PDC lines 997537-175-T-J1-PDC and 415267-285-R-J2-PDC were cultured on uncoated flasks. The 857933-349-R-J2-PDC line was cultured in 6C/Colon 1B media containing advanced DMEM/F-12 (Thermo Fisher Scientific, cat. 12634028), 10 mM HEPES (Thermo Fisher Scientific, cat. 15630080), 1X GlutaMAX supplement (Thermo Fisher Scientific, cat. 35050061), 0.1 mg/mL primocin (InvivoGen, San Diego, CA, cat. ant-pm-2), 10% defined fetal bovine serum, heat inactivated (HyClone Laboratories Inc., Logan, UT, cat. SH30070.03HI), 50% L-WRN conditioned media (ATCC, cat. CRL-3276), 1.25 mM N-Acetyl-L-cysteine (Sigma-Aldrich, cat. A9165), 10 mM nicotinamide (Sigma-Aldrich, cat. N0636), 1X B-27 supplement (Thermo Fisher Scientific, cat. 17504044), 1X N-2 supplement (Thermo Fisher Scientific, cat. […]

[1] = second compound 0.0316 µM, first compound 0.0316 µM
[2] = second compound 0.0316 µM, first compound 0.1 µM
[3] = second compound 0.0316 µM, first compound 0.316 µM
[4] = second compound 0.0316 µM, first compound 1 µM
[5] = second compound 0.0316 µM, first compound 3.16 µM
[6] = second compound 0.0316 µM, first compound 10 µM
[7] = second compound 0.1 µM, first compound 0.0316 µM
[8] = second compound 0.1 µM, first compound 0.1 µM
[9] = second compound 0.1 µM, first compound 0.316 µM
[10] = second compound 0.1 µM, first compound 1 µM
[11] = second compound 0.1 µM, first compound 3.16 µM
[12] = second compound 0.1 µM, first compound 10 µM
[13] = second compound 0.316 µM, first compound 0.0316 µM
[14] = second compound 0.316 µM, first compound 0.1 µM
[15] = second compound 0.316 µM, first compound 0.316 µM
[16] = second compound 0.316 µM, first compound 1 µM
[17] = second compound 0.316 µM, first compound 3.16 µM
[18] = second compound 0.316 µM, first compound 10 µM
[19] = second compound 1 µM, first compound 0.0316 µM
[20] = second compound 1 µM, first compound 0.1 µM
[21] = second compound 1 µM, first compound 0.316 µM
[22] = second compound 1 µM, first compound 1 µM
[23] = second compound 1 µM, first compound 3.16 µM
[24] = second compound 1 µM, first compound 10 µM
[25] = second compound 3.16 µM, first compound 0.0316 µM
[26] = second compound 3.16 µM, first compound 0.1 µM
[27] = second compound 3.16 µM, first compound 0.316 µM
[28] = second compound 3.16 µM, first compound 1 µM
[29] = second compound 3.16 µM, first compound 3.16 µM
[30] = second compound 3.16 µM, first compound 10 µM
[31] = second compound 10 µM, first compound 0.0316 µM
[32] = second compound 10 µM, first compound 0.1 µM
[33] = second compound 10 µM, first compound 0.316 µM
[34] = second compound 10 µM, first compound 1 µM
[35] = second compound 10 µM, first compound 3.16 µM
[36] = second compound 10 µM, first compound 10 µM
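Also: spheroids exposed to compounds for 7 days.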

`Nc1ccn(C2OC(CO)C(O)C2(F)F)c(=O)n1` (centres undefined) + COC1C(OC(N)=O)C(O)C(Oc2ccc3c(O)c(NC(=O)c4ccc(O)c(CC=C(C)C)c4)c(=O)oc3c2C)OC1(C)C showed a pIC50 (second compound 0.0316 µM) of 6.10, a pIC50 (second compound 0.1 µM) of 5.73 and a pIC50 (second compound 0.316 µM) of 5.51. It also gave a pIC50 (second compound 1 µM) of 6.73, a pIC50 (second compound 3.16 µM) of 5.81 and a pIC50 (second compound 10 µM) of under 5.00. For the same compound, the viability, T/C [1] was 61.7%, the viability, T/C [2] was 58.4% and the viability, T/C [3] was 51.4%. It also gave a viability, T/C [4] of 49.7%, a viability, T/C [5] of 46.8% and a viability, T/C [6] of 44.3%. The viability, T/C [7] was 61.6%, the viability, T/C [8] was 57.6% and the viability, T/C [9] was 54%. For the same compound, the viability, T/C [10] was 52.4%, the viability, T/C [11] was 50.4% and the viability, T/C [12] was 40%. It also gave a viability, T/C [13] of 67.8%, a viability, T/C [14] of 55% and a viability, T/C [15] of 52.7%. For the same compound, the viability, T/C [16] was 59.5%, the viability, T/C [17] was 51.8% and the viability, T/C [18] was 44%. For the same compound, the viability, T/C [19] was 71.1%, the viability, T/C [20] was 51.3% and the viability, T/C [21] was 48.4%. It also gave a viability, T/C [22] of 51.6%, a viability, T/C [23] of 45.2% and a viability, T/C [24] of 41.2%. The viability, T/C [25] was 62.2%, the viability, T/C [26] was 59.4% and the viability, T/C [27] was 52.6%. For the same compound, the viability, T/C [28] was 48.1%, the viability, T/C [29] was 53.9% and the viability, T/C [30] was 44.2%. It also gave a viability, T/C [31] of 69.6%, a viability, T/C [32] of 53.4% and a viability, T/C [33] of 52.9%. For the same compound, the viability, T/C [34] was 56.9%, the viability, T/C [35] was 50.5% and the viability, T/C [36] was 45.7%.

`O=C(c1cc(Cc2n[nH]c(=O)c3ccccc23)ccc1F)N1CCN(C(=O)C2CC2)CC1` + COC1C(OC(N)=O)C(O)C(Oc2ccc3c(O)c(NC(=O)c4ccc(O)c(CC=C(C)C)c4)c(=O)oc3c2C)OC1(C)C gave a pIC50 (second compound 0.0316 µM) of under 5.00, a pIC50 (second compound 0.1 µM) of under 5.00 and a pIC50 (second compound 0.316 µM) of under 5.00. The pIC50 (second compound 1 µM) was under 5.00, the pIC50 (second compound 3.16 µM) was under 5.00 and the pIC50 (second compound 10 µM) was under 5.00. For the same compound, the viability, T/C [1] was 101%, the viability, T/C [2] was 93.9% and the viability, T/C [3] was 91.4%. The viability, T/C [4] was 88.3%, the viability, T/C [5] was 90.8% and the viability, T/C [6] was 78.9%. For the same compound, the viability, T/C [7] was 97.4%, the viability, T/C [8] was 85.9% and the viability, T/C [9] was 86%. For the same compound, the viability, T/C [10] was 88%, the viability, T/C [11] was 86.3% and the viability, T/C [12] was 83.9%. It also gave a viability, T/C [13] of 94.8%, a viability, T/C [14] of 91.4% and a viability, T/C [15] of 90.3%. For the same compound, the viability, T/C [16] was 89.2%, the viability, T/C [17] was 85.5% and the viability, T/C [18] was 75.7%. For the same compound, the viability, T/C [19] was 85.8%, the viability, T/C [20] was 89.6% and the viability, T/C [21] was 89.5%. For the same compound, the viability, T/C [22] was 95.8%, the viability, T/C [23] was 85.4% and the viability, T/C [24] was 79.9%. The viability, T/C [25] was 96.4%, the viability, T/C [26] was 85.7% and the viability, T/C [27] was 104%. For the same compound, the viability, T/C [28] was 85.5%, the viability, T/C [29] was 92.8% and the viability, T/C [30] was 79.7%. For the same compound, the viability, T/C [31] was 96.3%, the viability, T/C [32] was 83% and the viability, T/C [33] was 92.4%. It also gave a viability, T/C [34] of 85.1%, a viability, T/C [35] of 91.1% and a viability, T/C [36] of 69.9%.
